# Laboratory results taken from patent publication US20090275567A1, “2-HETEROCYCLOAMINO-4-IMIDAZOLYLPYRIMIDINES AS AGENTS FOR THE INHIBITION OF CELL PROLIFERATION” (priority 2006, published 2009).
# pIC50: −log10 of the molar value.
# Molecular target: T1, CDK2/Cyclin E (Homo sapiens, UniProt P24941)
# T1 construct: made in house; host or cells: Sf21 (Spodoptera frugiperda) insect cells, baculovirus co-infection; the GST-Rb substrate was made in E. coli BL21 (DE3) pLysS
# Assay: in vitro kinase assay (Scintillation Proximity Assay), CDK2/Cyclin E, GST-Rb substrate
# Format: biochemical
# Settings: CDK2/Cyclin E partially-purified enzyme, 0.2 μM ATP, read-out: CDK2 inhibitory activity IC50
# Experimental: The compounds were tested in an in vitro kinase assay in 96 well format using Scintillation Proximity Assay (SPA—obtained from Amersham) for measuring incorporation of [γ-33-P]-Adenosine Triphosphate into a test substrate (GST-Retinoblastoma protein; GST-Rb). In each well was placed the compound to be tested (diluted in DMSO and water to correct concentrations) and in control wells either roscovitine as an inhibitor control or DMSO as a positive control. […]
# The plates were sealed with Topseal-S plate sealers, left for two hrs then spun at 2500 rpm, 1124×g., for 5 mins. The plates were read on a Topcount for 30 seconds per well. […]
# E. coli paste was resuspended in 10 ml/g of NETN buffer (50 mM Tris pH 7.5, 120 mM NaCl, 1 mM EDTA, 0.5% v/v NP-40, 1 mM PMSF, 1 ug/ml leupeptin, 1 ug/ml aprotinin and 1 ug/ml pepstatin) and sonicated for 2×45 seconds per 100 ml homogenate. […] The final product was analysed by Sodium Dodeca Sulfate (SDS) PAGE (Polyacrylamide gel) using 8-16% Tris-Glycine gels (Novex, San Diego, USA).
# The open reading frames of CDK2 and Cyclin E were isolated by reverse transcriptase-PCR using HeLa cell and activated T cell mRNA as a template and cloned into the insect expression vector pVL1393 (obtained from Invitrogen 1995 catalogue number: V1392-20). […]
compound,measurement,value
"CC(=O)N1CCC(Nc2nccc(-c3cnc(C)n3C(C)C)n2)CC1 [Example 29, 1-[4-[[4-(2-Methyl-3-propan-2-yl-imidazol-4-yl)pyrimidin-2-yl]amino]-1-piperidinyl]ethanone]",pIC50,7.02
